The structures appear in SMILES notation.

The data set is described as follows: Whole blood stability assay. The format is in vitro ADME. The note with it: prodrug 50 nM, fresh pooled human whole blood, 37 degrees C.; read-out: t1/2 at 37 degrees C. in human whole blood. As for the experimental part:
Naltrexone prodrug stability was assessed using freshly collected whole blood (within 24-hr collection) from pooled human (n=3) donors. The incubation mixtures were prepared by spiking the prodrugs into pre-warmed (37 degrees C.) fresh whole blood to a final concentration of 50 nM. After gentle mixing, aliquots of incubation mixtures were immediately transferred into four different 96-deep well plates. One plate was used for each time point. The plates were incubated at 37 degrees C. at a shaking speed of 100 rpm. At time points 15, 30, 60 and 120 minutes, the reaction was quenched by addition of a mixture of water and acetonitrile containing the internal standard (naltrexone-D3). Time point 0 minutes was prepared separately by spiking the prodrugs into a quenched whole blood to obtain a final concentration of 50 nM. All samples were vortexed at a low speed for 15 min and centrifuged at 3900 rpm for 15 min. Supernatants were transferred into 96-well plates for LC-MS/MS analysis to monitor the depletion of the prodrugs and the formation of naltrexone.
The amount of remaining prodrug and released naltrexone for each sample was quantitated against the calibration curves prepared with the whole blood. The human whole blood was purchased from BioreclamationIVT (Westbury, N.Y., USA). Naltrexone-D3 was purchased from CERILLIANT® (Round Rock, Tex., USA). […] Where multiple runs have been completed, average values are reported.
Regarding `COc1c(CC(=O)Oc2ccc3c4c2O[C@H]2C(=O)CC[C@@]5(O)[C@@H](C3)N(CC3CC3)CC[C@]425)ccc2c(OC)c(CC(=O)Oc3ccc4c5c3O[C@H]3C(=O)CC[C@@]6(O)[C@@H](C4)N(CC4CC4)CC[C@]536)ccc12` [Compound 4, bis((4R,4aS,7aR,12bS)-3-(cyclopropylmethyl)-4a-hydroxy-7-oxo-2,3,4,4a,5,6,7,7a-octahydro-1H-4,12-methanobenzofuro[3,2-e]isoquinolin-9-yl) 2,2′-(1,5-dimethoxynaphthalene-2,6-diyl)diacetate], the half-life at 50 nM was found to be 28.9 min.
The same measure for `O=C(Cc1ccc2c(F)c(CC(=O)Oc3ccc4c5c3O[C@H]3C(=O)CC[C@@]6(O)[C@@H](C4)N(CC4CC4)CC[C@]536)ccc2c1F)Oc1ccc2c3c1O[C@H]1C(=O)CC[C@@]4(O)[C@@H](C2)N(CC2CC2)CC[C@]314` [Compound 5, bis((4R,4aS,7aR,12bS)-3-(cyclopropylmethyl)-4a-hydroxy-7-oxo-2,3,4,4a,5,6,7,7a-octahydro-1H-4,12-methanobenzofuro[3,2-e]isoquinolin-9-yl) 2,2′-(1,5-difluoronaphthalene-2,6-diyl)diacetate]: 20.4 min; for `O=C(Cc1ccc2c(Cl)c(CC(=O)Oc3ccc4c5c3O[C@H]3C(=O)CC[C@@]6(O)[C@@H](C4)N(CC4CC4)CC[C@]536)ccc2c1Cl)Oc1ccc2c3c1O[C@H]1C(=O)CC[C@@]4(O)[C@@H](C2)N(CC2CC2)CC[C@]314` [Compound 6, bis((4R,4aS,7aR,12bS)-3-(cyclopropylmethyl)-4a-hydroxy-7-oxo-2,3,4,4a,5,6,7,7a-octahydro-1H-4,12-methanobenzofuro[3,2-e]isoquinolin-9-yl) 2,2′-(1,5-dichloronaphthalene-2,6-diyl)diacetate]: 25.7 min.
Regarding `Cc1c(CC(=O)Oc2ccc3c4c2O[C@H]2C(=O)CC[C@@]5(O)[C@@H](C3)N(CC3CC3)CC[C@]425)ccc2c(C)c(CC(=O)Oc3ccc4c5c3O[C@H]3C(=O)CC[C@@]6(O)[C@@H](C4)N(CC4CC4)CC[C@]536)ccc12` [Compound 7, bis((4R,4aS,7aR,12bS)-3-(cyclopropylmethyl)-4a-hydroxy-7-oxo-2,3,4,4a,5,6,7,7a-octahydro-1H-4,12-methanobenzofuro[3,2-e]isoquinolin-9-yl) 2,2′-(1,5-dimethylnaphthalene-2,6-diyl)diacetate], the half-life at 50 nM was 58.6 min.
As for `O=C(CCc1ccc2cc(CCC(=O)Oc3ccc4c5c3O[C@H]3C(=O)CC[C@@]6(O)[C@@H](C4)N(CC4CC4)CC[C@]536)ccc2c1)Oc1ccc2c3c1O[C@H]1C(=O)CC[C@@]4(O)[C@@H](C2)N(CC2CC2)CC[C@]314` [Compound 8, bis((4R,4aS,7aR,12bS)-3-(cyclopropylmethyl)-4a-hydroxy-7-oxo-2,3,4,4a,5,6,7,7a-octahydro-1H-4,12-methanobenzofuro[3,2-e]isoquinolin-9-yl) 3,3′-(naphthalene-2,6-diyl)dipropionate], the half-life at 50 nM stood at 26.3 min.
Turning to `O=C(Cc1cccc2cccc(CC(=O)Oc3ccc4c5c3O[C@H]3C(=O)CC[C@@]6(O)[C@@H](C4)N(CC4CC4)CC[C@]536)c12)Oc1ccc2c3c1O[C@H]1C(=O)CC[C@@]4(O)[C@@H](C2)N(CC2CC2)CC[C@]314` [Compound 9, bis((4R,4aS,7aR,12bS)-3-(cyclopropylmethyl)-4a-hydroxy-7-oxo-2,3,4,4a,5,6,7,7a-octahydro-1H-4,12-methanobenzofuro[3,2-e]isoquinolin-9-yl) 2,2′-(naphthalene-1,8-diyl)diacetate], the half-life at 50 nM was 40.9 min.
As for `O=C(Cc1ccc2ccc(CC(=O)Oc3ccc4c5c3O[C@H]3C(=O)CC[C@@]6(O)[C@@H](C4)N(CC4CC4)CC[C@]536)cc2c1)Oc1ccc2c3c1O[C@H]1C(=O)CC[C@@]4(O)[C@@H](C2)N(CC2CC2)CC[C@]314` [Compound 10, bis((4R,4aS,7aR,12bS)-3-(cyclopropylmethyl)-4a-hydroxy-7-oxo-2,3,4,4a,5,6,7,7a-octahydro-1H-4,12-methanobenzofuro[3,2-e]isoquinolin-9-yl) 2,2′-(naphthalene-2,7-diyl)diacetate], the figure is 14.7 min; as for `O=C(Oc1ccc2c3c1O[C@H]1C(=O)CC[C@@]4(O)[C@@H](C2)N(CC2CC2)CC[C@]314)c1ccc(C(=O)Oc2ccc3c4c2O[C@H]2C(=O)CC[C@@]5(O)[C@@H](C3)N(CC3CC3)CC[C@]425)cc1` [Reference Compound A, NTX-3-terephthaloyl-NTX, reference compound], 54.7 min.

These data come from patent US10799496B2, “Naphthylenyl compounds for long-acting injectable compositions and related methods” (priority 2018, dated 2020).
